Assay results from patent US7713969B2, “Compositions and methods for treatment of cancer” (ArQule, Inc., priority 2005, dated 2010).

Key:
[1] = system: Recombinant Protein Kinase C; assay: Protein Kinase C kinase reaction, Histone H1, autoradiography (Example 79); format: biochemical; settings: 0.05, 0.5, or 10 μM, 15 minutes at room temperature
Protocol: Recombinant Protein Kinase C (Calbiochem) (100 ng) was incubated with (±)-cis-3-(5,6-dihydro-4H-pyrrolo[3,2,1-ij]quinolin-1yl)-4(1H-indol-3-yl)pyrrolidine-2,5-dione or (±)-trans-3-(5,6-dihydro-4H-pyrrolo[3,2,1-ij]quinolin-1-yl)-4(1H-indol-3-yl)pyrrolidine-2,5-dione at 0.05, 0.5, or 10 μM for 15 minutes at room temperature. Subsequently, a radioactive labeling mix in kinase buffer (20 mM Tris-HCl pH 7.5, 10 mM MgCl2) containing 20 μM ATP, 0.2 μCi/μl γ^32P-ATP, 0.2 μg/μl Histone H1 (Upstate) was added to each sample. The kinase reaction was carried out for 5 minutes at room temperature. Reaction products were analyzed by 12% SDS-PAGE and autoradiography.

[2] = system: A549 human lung cancer cells; assay: Annexin V / propidium iodide staining (Example 84); format: cell-based; settings: 1.2 μM, 38 hours
Protocol: A549 human lung cancer cells in a 96-well plate (Costar 3603, 5,000/well) were treated with either A) DMSO as a control; B) 1.2 μM (−)-trans-3-(5,6-dihydro-4H-pyrrolo[3,2,1-ij]quinolin-1-yl)-4(1H-indol-3-yl)pyrrolidine-2,5-dione for 38 hours before addition of 1:200 fluorescent Annexin V (green) and 1:500 Propidium iodide (magenta, final concentration of 1 μg/mL). The labeling procedure was allowed to process at 37° C. for 20 minutes followed by image acquisition and analysis using an IC100 Image Cytometer (Beckman Coulter, Inc) with 10× amplification.
To determine whether (−)-trans-3-(5,6-dihydro-4H-pyrrolo[3,2,1-ij]quinolin-1-yl)-4(1H-indol-3-yl)pyrrolidine-2,5-dione works primarily through a cytostatic or apoptotic mechanism, cancer cells exposed to (−)-trans-3-(5,6-dihydro-4H-pyrrolo[3,2,1-ij]quinolin-1-yl)-4(1H-indol-3-yl) pyrrolidine-2,5-dione were stained with fluorescently labeled Annexin V (green fluorescence) and propidium iodide (bright magenta fluorescence). Annexin V is a well-validated reagent that specifically binds with high affinity to externalized membrane phosphatidylserine, an early marker of the onset of apoptosis, while propidium iodide is a marker for dead cells. […] (See FIG. 8)

[3] = system: HT29 human colon cancer xenograft; assay: Colon cancer xenograft model (Example 87); format: in vivo, mice; settings: for optimal tumor growth inhibition: daily 5 days on/2 off, 20 treatments
Protocol: In this human colon cancer xenograft model HT29 human colon cancer cells were inoculated subcutaneously into female athymic nude mice (5×10^6 cells/mouse) and allowed to form palpable tumors. Once the tumors reached approximately 60 mm^3, the animals were treated orally with either (−)-trans-3-(5,6-dihydro-4H-pyrrolo[3,2,1-ij]quinolin-1-yl)-4(1H-indol-3-yl)pyrrolidine-2,5-dione at 200 mg/kg or 300 mg/kg, or vehicle control daily (5 consecutive days, followed by a 2 day dosing holiday). (−)-trans-3-(5,6-dihydro-4H-pyrrolo[3,2,1-ij]quinolin-1-yl)-4(1H-indol-3-yl)pyrrolidine-2,5-dione was formulated in PEG 400:20% Vitamin E TPGS (60:40). The animals received a total of 20 treatments of either (−)-trans-3-(5,6-dihydro-4H-pyrrolo[3,2,1-ij]quinolin-1-yl)-4(1H-indol-3-yl) pyrrolidine-2,5-dione or vehicle control. Tumors were measured throughout treatment and the post-treatment observation period. Each point represents the mean±SEM of ten tumors. (See FIG. 11)

MDA-MB-231 cells [4] = assay: Cancer cell invasion assay with inserts (Example 85); format: cell-based; settings: Homo sapiens, 24 hours pretreatment, 24 hours invasion, read-out: estimated IC50, invasive phenotype
Protocol: MDA-MB-231 cells were pretreated with indicated concentrations of (−)-trans-3-(5,6-dihydro-4H-pyrrolo[3,2,1-ij]quinolin-1-yl)-4(1H-indol-3-yl)pyrrolidine-2,5-dione for 24 hours. 300 μl of each cell suspension (at a concentration 0.5×10^6 cells/mL in serum free medium) was placed in individual inserts and incubated for 24 hours at 37° C. The bottom wells housing the inserts contained 500 μl of 10% FBS medium. […] Each insert was then transferred to a clean well containing cell stain solution and incubated for 10 minutes at room temperature. The bottom of the insert was destained by incubating in extraction solution and OD was measured at 560 nm. (−)-trans-3-(5,6-dihydro-4H-pyrrolo[3,2,1-ij]quinolin-1-yl)-4(1H-indol-3-yl) pyrrolidine-2,5-dione inhibited the migration across interstices in confluent cultures of MDA-MB-231 cancer cells. The data represent the mean of two independent experiments. (See FIG. 9)

MDA-MB-231 cells [5] = assay: Colony counting, surviving fraction (Example 78); format: cell-based, human; settings: Homo sapiens, MDA-MB-231; two days incubation, colonies counted two weeks later; read-out: IC50 (surviving fraction equaled 50)
Protocol: MDA-MB-231 cells (ATCC# HTB-26), grown in DMEM plus 15% heat inactivated fetal bovine serum plus 10 mM HEPES pH 7.5, were plated in 60 mm plates (2×10^5 cells per plate). After two days candidate compounds in DMSO at various concentrations were diluted in media and added to individual plates such that the final DMSO concentration in the cell culture media was 0.1%. After two days incubation the culture was trypsinized, cells were washed with media, counted using a hemocytometer and 500 cells, including cell bodies, were plated in […] in media. Two weeks later the media was removed and the cell colonies were fixed with methanol for 10 minutes, stained with 1% crystal violet 10 minutes, washed with water and air dried. Cell colonies were visually counted when there were greater then 50 cells present per colony. Plating efficiency was defined as the average number of colonies formed divided by 500. The surviving fraction was defined as the plating efficiency of a candidate compound divided by the plating efficiency of DMSO multiplied by 100. For candidate compound titrations, the IC50 concentration was determined by fitting the equation y=AeBx to the data points and extrapolating the concentration where surviving fraction equaled 50. […]

O=C1NC(=O)[C@@H](c2cn3c4c(cccc24)CCC3)[C@@H]1c1c[nH]c2ccccc12 (racemic) [(±)-Trans-3-(5,6-dihydro-4H-pyrrolo[3,2,1-ij]quinolin-1-yl)-4(1H-indol-3-yl)pyrrolidine-2,5-dione]
Protein Kinase C kinase activity in comparison to carrier alone [1]: did not reduce kinase activity

O=C1NC(=O)C(c2cn3c4c(cccc24)CCC3)C1c1c[nH]c2ccccc12 (single isomer, unassigned; (-))
apoptosis evidenced by Annexin V staining [2]: induced cells to undergo apoptosis | cells that co-stain with both Annexin V and propidium iodide [2]: 10-20% | change in body weight ([3]; 200 mg/kg or 300 mg/kg oral administration): no significant change in body weight | optimal tumor growth inhibition ([3]; 200 mg/kg orally): 39% | optimal tumor growth inhibition ([3]; 300 mg/kg orally): 55% | IC50 (MDA-MB-231 cells [4]): ~500 nM | IC50 (MDA-MB-231 cells [5]): 620 nM
